Assay results: patent US11633383B2, “Dosage principle for drugs useful for treating neoplastic diseases” (Basilea Pharmaceutica International AG, priority 2017, dated 2023)

How the values were obtained:
[1] = Plasma concentrations of BAL27862 (Cmax, AUC) in patients, 2-hour intravenous infusion study; assay type: in vivo, human; conditions: mean
Method: (§1) In one clinical trial BAL101553 (dihydrochloride salt) was given as a 2-hour infusion on days 1, 8, and 15 of each 28-day cycle (comparative Example).
(§2) BAL101553 (dihydrochloride salt) for intravenous administration is prepared by reconstitution of lyophilized BAL101553 (dihydrochloride salt) with saline solution or Ringer lactate solution, prior to further dilution with Ringer lactate for intravenous infusion to the patient. The 48-hour infusion is administered via an elastomeric pump (Baxter) using an infusion volume of 120 ml or 240 ml.
2-hour intravenous infusion study: on day 1 of cycle 1 blood samples were collected at pre-dose and where clinically feasible 0.5, 1, 2, 3, 4, 6, 8 and 24 hours after dosing.
(§3) Venous blood samples were collected into chilled 2 ml plastic tubes containing K2-EDTA as an anticoagulant mixed with 20 μl 2M citric acid and kept on ice for 15 minutes. Approximately 1.0 ml plasma was prepared by centrifugation at 1′500×g for 10-15 minutes at 4° C., transferred into new vials and stored at −80° C. until analysis. Plasma concentrations of BAL27862 were determined with a fully validated LC-MS/MS method:
(§4) 50 μl of acetonitrile was added to 25 μl plasma containing stable labelled internal standards (IS). After vortexing, the samples were centrifuged for 10 minutes at 50′000×g at 8° C. and 50 μl of the supernatant was transferred to an empty auto-sampler vial. The extract was separated by liquid chromatography, performed using water (0.1% formic acid) as mobile phase A and acetonitrile (0.1% formic acid) as mobile phase B. The column used was a YMC Hydroshere C18, 2.1×33 mm, 3 μm (YMC Co, Kyoto, Japan). The injection volume was set to 2 μL (full loop).
(§5) Detection was carried out using a triple-stage quadrupole MS/MS (TSQ Vantage, Thermo Fisher
(§6) Scientific, San Jose, Calif., USA) in the selected reaction monitoring mode.
(§7) The following calibration range was applied:
(§8) 1 to 1000 ng/ml for BAL27862 in human plasma ([…], citric acid)
(§9) Calculation of Pharmacokinetic Parameters (exposure [Area Under the Curve—AUC] and peak [Cmax] drug levels) for Human Samples:
(§10) AUC and Cmax of BAL27862 were calculated by non-compartmental analysis (NCA) using Phoenix WinNonLin 7.0 software from Certara.

[2] = Plasma concentrations of BAL27862 (Cmax, AUC) in patients, daily oral administration study; assay type: in vivo; conditions: human, BAL101553 dihydrochloride daily oral, N=7; for AUC: plasma, BAL27862, compared as weekly exposure; for Cmax: BAL27862 in plasma
Method: (§11) In another clinical trial BAL101553 (dihydrochloride salt) was given as a daily oral administration in treatment cycles consisting of 28 days of continuous, daily administration to patients in a fasted state (comparative Example).
(§12) BAL101553 (dihydrochloride salt) for oral administration is prepared as a HPMC capsules containing 1 mg active ingredient, 98 mg of mannitol and 1 mg magnesium stearate, or 5 mg active ingredient, 94 mg mannitol and 1 mg magnesium stearate.
Daily oral administration study: on day 1 of cycle 1 blood samples were collected at pre-dose and where clinically feasible 0.5, 1, 2, 3, 4, 6, 8 and 24 hours after intake of study medication.
as §3, §4, §5, §6, §7, §8, §9, §10

[3] = Plasma concentrations of BAL27862 (Cmax, AUC) in patients, 48-hour intravenous infusion study; assay type: in vivo, human; conditions: for AUClast / Cmax: BAL27862 in plasma; for AUC: plasma, BAL27862, compared as weekly exposure
Method: (§13) In another clinical trial BAL101553 (dihydrochloride salt) was given as a 48-hour infusion on days 1, 8 and 15 of each 28 day cycle.
as §2
48-hour intravenous infusion study: on day 1 of cycle 1 blood samples were collected at pre-dose and where clinically feasible 0.5, 1, 2, 4, 8, 24, 30, 48, 52, 54, 72, and 168 hours after dosing.
as §3, §4, §5, §6, §7, §8, §9, §10

tumour = assay: Clinical trials of BAL101553: tumour response; assay type: in vivo, human
Source text: as §13, §11

[4] = Clinical trials of BAL101553: maximum tolerated dose and adverse drug reactions; assay type: in vivo, human
Source text: as §1, §13, §11, §2, §12

[5] = cited from earlier work
[6] = cited from earlier work; remark: listed apart in the source
[7] = Blood pressure measurements in patients treated with BAL101553; assay type: in vivo, human; conditions: cycle 1 day 1
Method: On day 1 of cycle 1 of the 2-hour and 48-hour intravenous infusion studies systolic and diastolic blood pressures were measured using a calibrated, automated blood pressure device at various time points, i.e. prior to the first administration of study drug and then at least hourly for the first 4 hours after start of dosing.

[8] = BAL101553 dihydrochloride 45 mg/m^2, 2 hours infusion, N=8, cycle 1 day 1
[9] = BAL101553 dihydrochloride 60 mg/m^2, 2 hours infusion, N=21, cycle 1 day 1
[10] = BAL101553 dihydrochloride 45 mg/m^2, 48 hours infusion, mean, N=3, cycle 1 day 1
[11] = BAL101553 dihydrochloride 70 mg/m^2, 48 hours infusion, mean, N=4, cycle 1 day 1
[12] = BAL101553 dihydrochloride 90 mg/m^2, 48 hours infusion, mean, N=4, cycle 1 day 1
[13] = 2-hour infusion on study days 1, 8 and 15, q28 days, 2016 ASCO poster

N#CCCNc1nonc1-c1nc2ccccc2n1CC(=O)c1ccc(N)cc1 [BAL27862, 3-(4-{1-[2-(4-Amino-phenyl)-2-oxo-ethyl]-1H-benzoimidazol-2-yl}-furazan-3-ylamino)-propionitrile]
AUClast [1, 8]: 4340 h*ng/m | Cmax [1, 8]: 356 ng/m | AUClast [1, 9]: 6040 h*ng/m | Cmax [1, 9]: 498 ng/m | AUC ([2]; 16 mg): 8400 ng·h/mL | AUC ([2]; 20 mg): 12200 ng·h/mL | Cmax ([2]; 16 mg): 131 ng/mL | Cmax ([2]; 20 mg): 134 ng/mL | variability of pharmacokinetic exposure (AUC) ([3]; 48-hour dose regimen versus daily oral regimen): lower variability | AUClast [3, 10]: 3830 h*ng/m | Cmax [3, 10]: 77.7 ng/m | AUClast [3, 11]: 9030 h*ng/m | Cmax [3, 11]: 152 ng/m | AUClast [3, 12]: 12000 h*ng/m | Cmax [3, 12]: 238 ng/m | Cmax ([3]; human, intravenous, BAL101553 dihydrochloride 48-hour infusion, 70 mg/m^2, N=9, read-out: Cmax (mean, ng/ml)): 148 ng/mL | Cmax ([3]; human, intravenous, BAL101553 dihydrochloride 48-hour infusion, 90 mg/m^2, N=4, read-out: Cmax (mean, ng/ml)): 238 ng/mL | AUC ([3]; human, intravenous, BAL101553 dihydrochloride 48-hour infusion, 70 mg/m^2, N=9): 8580 ng·h/mL | AUC ([3]; human, intravenous, BAL101553 dihydrochloride 48-hour infusion, 90 mg/m^2, N=4): 13500 ng·h/mL

N#CCCNc1nonc1-c1nc2ccccc2n1CC(=O)c1ccc(NC(=O)[C@@H](N)CCCCN)cc1 [BAL101553, (S)-2,6-Diamino-hexanoic acid [4-(2-{2-[4-(2-cyano-ethylamino)-furazan-3-yl]-benzoimidazol-1-yl}-acetyl)-phenyl]-amide]
tumour response (tumour; 48-hour infusion regimen, MTD dose (70 mg/m^2)): partial tumour response in a patient | objective responses (tumour; daily oral dose regimen, any dose): no objective responses were observed | troponin elevation indicative of myocardial damage ([4]; 45 mg/m^2 or 60 mg/m^2, 2-hour infusion): Three patients | troponin elevation indicative of myocardial damage ([4]; 45 mg/m^2 or 70 mg/m^2, 48-hour infusion): not observed | Grade 4 hyponatremia ([4]; 90 mg/m^2 (supra-MTD), 48-hour infusion regimen): no observation of Grade 4 hyponatremia | maximum tolerated dose (MTD) ([4]; 48-hour infusion on days 1, 8 and 15 of each 28 day cycle): 70 mg/m^2 | Serious Grade 4 adverse drug reactions ([4]; 48-hour infusion, 70 mg/m^2, N=9): None | Serious Grade 4 adverse drug reactions ([4]; 48-hour infusion, 90 mg/m^2, N=4): None | maximum tolerated dose (MTD) ([4]; daily oral administration, 28-day cycles, fasted state): 16 mg/day | serious Grade 4 hyponatremia ([4]; daily oral dose of 20 mg/day (supra-MTD)): 2 patients | Serious Grade 4 adverse drug reactions ([4]; daily oral, 16 mg, N=7): None | Serious Grade 4 adverse drug reactions ([4]; daily oral, 20 mg, N=7): 2 patients with | water solubility [5]: highly water-soluble | myocardial ischemia [6, 13]: asymptomatic myocardial ischemia | recommended phase 2 dose [6, 13]: 30 mg/m^2 | vascular effects ([6]; 2-hour infusion, related to peak drug concentration (Cmax), 2016 ASCO poster): dose-dependent vascular effects that were dose-limiting | MTD ([6]; 2-hour intravenous administration, phase I escalation study of WO2015/173341): 60 mg/m^2 | change from baseline in systolic and diastolic blood pressure ([7]; infused over 48 hours, 45 or 70 mg/m^2): neutral blood pressure profile or a minor average change from baseline | change from baseline in systolic and diastolic blood pressure ([7]; infusion duration of 2 hours, 45 or 60 mg/m^2): distinct changes from baseline
